Experimental data taken from ChEMBL document CHEMBL1201862, “PubChem BioAssay data set” (2004).
Active and inactive are the calls of the source.

test system: not listed separately; assay: C. albicans growth with fluconazole, confirmation, fluorescence, retest (AID 2467); format: functional, cell-based; details: not given

For `CCCn1c(CC)nc([N+](=O)[O-])c1Sc1ccc(F)cc1`, which EC50 is on record?
Its EC50 is > 38 µM (not active).

Which EC50 does the source give for `CCOc1ccccc1NC(=O)c1cc(S(=O)(=O)N2CCC3(CC2)OCCO3)ccc1F` here?
Its EC50 is > 38 µM (not active).

Which EC50 does the source give for `CN1CC2([N+](=O)[O-])CC=C(OCCO)C([N+](=O)[O-])(C1)C2` (configuration not stated) here?
The EC50 was > 38 µM (not active).

For `Oc1nc(SCc2ccccc2F)nc2ccccc12`, which EC50 is on record?
The EC50 was 1.26 µM (active).

With `O=c1cc(-c2ccccc2)c2ccc(O)cc2o1` as the compound, how does the EC50 read?
The EC50 was 2.12 µM (active).

test system: not listed separately; assay: cytotoxicity toward NIH3T3 fibroblasts, dose response, counter-screen, cell-based, ATP luminescence, mouse fibroblasts (AID 2010); format: functional; details: not given;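 further: cells exposed to compound for about 90 hours before reading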

Which EC50 does the source give for `COc1c(C)cc(Br)cc1C(=O)Nc1ccccc1N1CCN(C(=O)c2ccccc2)CC1` here?
The EC50 was > 60 µM (not active).

test system: not listed separately; assay: HEp-2 cell cytotoxicity, dose response, cytotoxicity control for RSV inhibitor project, HTS (AID 2410); format: functional; details: human respiratory syncytial virus

Which CC50 does the source give for `Cc1cccc(-c2nc(C#N)c(NCc3ccco3)o2)c1` here?
Its CC50 is 42.9 µM (active).

With `CC(C)c1nc(SCc2c(F)cccc2Cl)c2c(=O)n(C)c(=O)n(C)c2n1` as the compound, how does the CC50 read?
Its CC50 is 7.44 µM (active).

With `CC(=O)c1cccc(Nc2nc(-c3sc(C)nc3C)cs2)c1` as the compound, how does the CC50 read?
Its CC50 is > 50 µM (active).

With `Cc1cc(Cl)ccc1Oc1cccc(C(=O)/C(C#N)=C/N(C)C)c1` as the compound, how does the CC50 read?
Its CC50 is 29.1 µM (active).

Which CC50 does the source give for `CSc1nnc(C)c(/C=C/Nc2ccc(Cl)cc2)n1` here?
The CC50 was > 50 µM (active).

With `COc1ccc(CCNC(=O)c2ccc3c(c2)N(Cc2ccc(C)cc2)CCS3)cc1OC` as the compound, how does the CC50 read?
The CC50 was 35.9 µM (active).

Which CC50 does the source give for `Fc1ccc(Cn2nnnc2CN2CCC(n3nnc4cc(C(F)(F)F)ccc43)CC2)cc1` here?
Its CC50 is 15 µM (active).

For `Cc1oc2c(cc(NS(=O)(=O)c3cccs3)c3ccccc32)c1C(=O)OC(C)C`, which CC50 is on record?
Its CC50 is 20.3 µM (active).

With `COc1c(C)cc(Br)cc1C(=O)Nc1ccccc1N1CCN(C(=O)c2ccccc2)CC1` as the compound, how does the CC50 read?
Its CC50 is 31.5 µM (active).

With `Brc1ccc(-c2ncc3ccccn23)cc1` as the compound, how does the CC50 read?
Its CC50 is 29.9 µM (active).

For `C/C(=N\N=C(/N)SC1CC(=O)N(c2cccc(Cl)c2)C1=O)c1cccs1` (configuration not stated), which CC50 is on record?
The CC50 was 19.4 µM (active).

Which CC50 does the source give for `C[C@]12CC[C@@H]3c4ccc(O)cc4CC[C@H]3[C@@H]1CCC2=O` [ESTRONE] here?
Its CC50 is 33 µM (active).

Which CC50 does the source give for `C=C1C[C@H]2[C@@H]3C=C(C)C4=CC(=O)CC[C@]4(C)[C@H]3CC[C@]2(C)[C@@]1(OC(C)=O)C(C)=O` [MELENGESTROL ACETATE] here?
The CC50 was 26.5 µM (active).

test system: not listed separately; assay: NIH-3T3 fibroblast cytotoxicity, dose response, cytotoxicity control, cell-based, fluorescence, Alamar Blue, secondary assay (AID 2327); format: functional; details: not given;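 further: NIH-3T3 mouse fibroblasts cultured with fluconazole at 8 µg/mL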

With `CCCn1c(CC)nc([N+](=O)[O-])c1Sc1ccc(F)cc1` as the compound, how does the EC50 read?
The EC50 was 16.3 µM (active).

Which EC50 does the source give for `CCOc1ccccc1NC(=O)c1cc(S(=O)(=O)N2CCC3(CC2)OCCO3)ccc1F` here?
The EC50 was > 160 µM (inactive).

With `CN1CC2([N+](=O)[O-])CC=C(OCCO)C([N+](=O)[O-])(C1)C2` (configuration not stated) as the compound, how does the EC50 read?
Its EC50 is > 150 µM (inconclusive).

For `Oc1nc(SCc2ccccc2F)nc2ccccc12`, which EC50 is on record?
Its EC50 is > 150 µM (inactive).

With `O=c1cc(-c2ccccc2)c2ccc(O)cc2o1` as the compound, how does the EC50 read?
Its EC50 is > 160 µM (inconclusive).

molecular target: T1, Heat shock factor protein 1 (Mus musculus, UniProt P38532); assay: inhibition of MG132-induced HSE-luciferase signal, confirmation, cell-based, NIH3T3, luminescence, dose retest (AID 2382); format: functional; details: not given;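 further: NIH3T3 fibroblasts with HSF1-driven luciferase reporter stressed by proteasome inhibitor MG132; luminescence from HSF1-driven luciferase expression after 8 hours of MG132 stress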
T1 sequence (P38532 whole entry): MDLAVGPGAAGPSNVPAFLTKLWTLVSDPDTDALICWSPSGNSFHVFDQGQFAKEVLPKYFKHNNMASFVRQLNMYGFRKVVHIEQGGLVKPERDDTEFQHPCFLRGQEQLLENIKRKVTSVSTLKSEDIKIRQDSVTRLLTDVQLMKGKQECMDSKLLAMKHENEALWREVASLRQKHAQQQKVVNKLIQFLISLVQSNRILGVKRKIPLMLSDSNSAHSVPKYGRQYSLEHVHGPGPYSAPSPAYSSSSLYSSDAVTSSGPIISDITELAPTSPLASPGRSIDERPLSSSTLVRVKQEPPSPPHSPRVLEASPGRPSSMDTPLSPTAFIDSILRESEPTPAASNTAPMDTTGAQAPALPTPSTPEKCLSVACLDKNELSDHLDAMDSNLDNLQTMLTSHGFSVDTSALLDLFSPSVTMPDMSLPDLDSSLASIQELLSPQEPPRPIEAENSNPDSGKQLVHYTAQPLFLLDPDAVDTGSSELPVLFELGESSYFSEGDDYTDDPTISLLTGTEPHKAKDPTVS

Which EC50 does the source give for `CC(C)c1nc(SCc2c(F)cccc2Cl)c2c(=O)n(C)c(=O)n(C)c2n1` here?
Its EC50 is > 195 µM (not active).

With `O=c1cc(-c2ccccc2)c2ccc(O)cc2o1` as the compound, how does the EC50 read?
The EC50 was 117 µM (active).

molecular target: T2, RNA-binding protein pos-1 (Caenorhabditis elegans, UniProt G5EF15); assay: inhibitors of POS-1/mex-3 RNA binding, dose response, biochemical, fluorescence polarization (AID 1964); details: not given;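 further: purified POS-1 fused to maltose binding protein made in E. coli; potency of compounds blocking POS-1 binding to fluorescent RNA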
T2 sequence (G5EF15 whole entry): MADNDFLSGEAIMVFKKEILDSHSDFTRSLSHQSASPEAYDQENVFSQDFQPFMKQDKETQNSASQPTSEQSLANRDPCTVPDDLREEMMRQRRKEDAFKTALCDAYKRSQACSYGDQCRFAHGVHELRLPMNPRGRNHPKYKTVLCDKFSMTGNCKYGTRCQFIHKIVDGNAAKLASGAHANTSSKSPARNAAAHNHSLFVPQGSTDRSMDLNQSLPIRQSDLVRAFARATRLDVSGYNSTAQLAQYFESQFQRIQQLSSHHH

With `CC(=O)/N=c1\c(C#N)cc2c(=O)n3cccc(C)c3nc2n1CCCOC(C)C` as the compound, how does the EC50 read?
Its EC50 is > 300 µM (not active).

molecular target: T3, Cytochrome P450 1A2 (Homo sapiens, UniProt P05177); details: not given;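 further: PubChem cytochrome P450 panel assay, CYP1A2 panel member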
T3 sequence (P05177 whole entry): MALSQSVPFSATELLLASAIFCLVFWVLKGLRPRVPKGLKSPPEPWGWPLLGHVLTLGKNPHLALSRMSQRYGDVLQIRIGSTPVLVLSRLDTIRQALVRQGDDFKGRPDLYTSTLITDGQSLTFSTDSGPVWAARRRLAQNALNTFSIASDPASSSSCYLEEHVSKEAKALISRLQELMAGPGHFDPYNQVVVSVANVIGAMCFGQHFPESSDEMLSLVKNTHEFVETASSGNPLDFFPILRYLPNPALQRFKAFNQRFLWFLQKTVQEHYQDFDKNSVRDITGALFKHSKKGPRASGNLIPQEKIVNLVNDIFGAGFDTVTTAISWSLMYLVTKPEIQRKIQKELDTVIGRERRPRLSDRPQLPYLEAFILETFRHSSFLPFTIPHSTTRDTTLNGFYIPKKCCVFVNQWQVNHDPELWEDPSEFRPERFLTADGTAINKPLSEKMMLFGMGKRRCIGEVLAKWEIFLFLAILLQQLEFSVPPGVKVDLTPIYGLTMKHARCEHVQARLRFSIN

With `Cn1c(=O)cc(OCC(=O)NCc2cccnc2)c2ccccc21` as the compound, how does the AC50 read?
The AC50 was 1.58 µM (inconclusive).

test system: not listed separately; assay: inhibitors of intracellular T. cruzi replication, confirmation, NIH3T3 host cells, beta-gal luminescence (AID 2044); format: functional, cell-based; details: not given;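 further: intracellular parasites grown in NIH/3T3 mouse fibroblasts as host cells; luminescent beta-galactosidase reporter signal from transgenic T. cruzi replicating inside host cells; inhibitors lower the luminescence signal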

With `COc1c(C)cc(Br)cc1C(=O)Nc1ccccc1N1CCN(C(=O)c2ccccc2)CC1` as the compound, how does the EC50 read?
The EC50 was 2.52 µM (active).

molecular target: Cytochrome P450 3A4 (Homo sapiens, UniProt P08684); details: not given;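 further: CYP3A4 tested as one member of a cytochrome P450 panel screen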
Sequence (P08684 whole entry): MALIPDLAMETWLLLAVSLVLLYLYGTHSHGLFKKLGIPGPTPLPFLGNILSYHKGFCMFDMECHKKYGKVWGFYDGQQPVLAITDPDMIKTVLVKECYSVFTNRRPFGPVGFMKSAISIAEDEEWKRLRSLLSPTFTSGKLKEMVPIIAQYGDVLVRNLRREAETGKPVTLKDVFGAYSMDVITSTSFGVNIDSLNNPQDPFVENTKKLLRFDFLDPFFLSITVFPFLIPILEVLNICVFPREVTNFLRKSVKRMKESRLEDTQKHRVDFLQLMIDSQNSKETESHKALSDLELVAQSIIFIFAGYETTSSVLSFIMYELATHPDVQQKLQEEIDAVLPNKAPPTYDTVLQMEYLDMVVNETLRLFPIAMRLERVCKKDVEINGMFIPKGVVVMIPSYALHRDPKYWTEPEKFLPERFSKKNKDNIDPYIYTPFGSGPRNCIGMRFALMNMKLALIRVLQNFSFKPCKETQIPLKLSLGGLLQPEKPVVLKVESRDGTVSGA

With `CN(C)c1ncc2nc(-c3ccccc3)c(=O)n(Cc3cccs3)c2n1` as the compound, how does the AC50 read?
Its AC50 is 15.8 µM (inconclusive).

Which AC50 does the source give for `COC(=O)CSC1=C(C#N)C(c2cccc(F)c2)CC(=O)N1` (configuration not stated) here?
Its AC50 is 39.8 µM (inconclusive).

Which AC50 does the source give for `N#CCCn1c(=O)c(-c2cc(F)cc(F)c2)nc2cnc(OCc3ccccc3)nc21` here?
Its AC50 is 15.8 µM (inconclusive).

molecular target: Cytochrome P450 2C9 (Homo sapiens, UniProt P11712); details: not given
Sequence (P11712 whole entry): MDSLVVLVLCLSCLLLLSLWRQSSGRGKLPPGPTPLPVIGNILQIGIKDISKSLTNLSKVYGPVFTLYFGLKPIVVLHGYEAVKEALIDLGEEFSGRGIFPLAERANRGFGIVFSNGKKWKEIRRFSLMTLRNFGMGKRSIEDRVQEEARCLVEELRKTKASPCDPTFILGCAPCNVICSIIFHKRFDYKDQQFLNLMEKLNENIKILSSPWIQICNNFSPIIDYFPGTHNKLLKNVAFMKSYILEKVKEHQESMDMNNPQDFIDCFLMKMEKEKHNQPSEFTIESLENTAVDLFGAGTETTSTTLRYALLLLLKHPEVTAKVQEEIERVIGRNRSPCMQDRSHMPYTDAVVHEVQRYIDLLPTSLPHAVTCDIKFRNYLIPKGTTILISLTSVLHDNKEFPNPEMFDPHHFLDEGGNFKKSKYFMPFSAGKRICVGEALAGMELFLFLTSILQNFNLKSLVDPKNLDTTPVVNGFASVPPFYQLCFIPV

Which AC50 does the source give for `CN(C)c1ncc2nc(-c3ccccc3)c(=O)n(Cc3cccs3)c2n1` here?
The AC50 was 10 µM (inconclusive).

Which AC50 does the source give for `COC(=O)CSC1=C(C#N)C(c2cccc(F)c2)CC(=O)N1` (configuration not stated) here?
Its AC50 is 0.0282 µM (inconclusive).

With `Cn1c(=O)cc(OCC(=O)NCc2cccnc2)c2ccccc21` as the compound, how does the AC50 read?
The AC50 was 14.1 µM (inconclusive).

Which AC50 does the source give for `N#CCCn1c(=O)c(-c2cc(F)cc(F)c2)nc2cnc(OCc3ccccc3)nc21` here?
The AC50 was 3.16 µM (inconclusive).

molecular target: Cytochrome P450 2D6 (Homo sapiens, UniProt P10635); details: not given;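 further: CYP2D6 member of a cytochrome P450 panel assay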
Sequence (P10635 whole entry): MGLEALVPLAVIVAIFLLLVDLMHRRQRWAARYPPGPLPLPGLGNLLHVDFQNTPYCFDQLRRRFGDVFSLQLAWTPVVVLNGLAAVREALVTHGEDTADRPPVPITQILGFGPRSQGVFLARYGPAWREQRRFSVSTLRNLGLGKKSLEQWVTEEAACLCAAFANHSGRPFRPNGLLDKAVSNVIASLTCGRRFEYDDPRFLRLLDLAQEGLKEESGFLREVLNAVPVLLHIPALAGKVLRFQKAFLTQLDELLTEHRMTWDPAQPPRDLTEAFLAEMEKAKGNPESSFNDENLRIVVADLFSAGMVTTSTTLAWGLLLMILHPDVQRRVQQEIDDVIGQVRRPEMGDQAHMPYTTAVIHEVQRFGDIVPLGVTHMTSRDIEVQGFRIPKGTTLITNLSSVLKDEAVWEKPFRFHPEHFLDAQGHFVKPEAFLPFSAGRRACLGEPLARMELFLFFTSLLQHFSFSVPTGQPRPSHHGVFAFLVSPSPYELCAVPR

For `CN/C(=N/C#N)NCCSC[C@H]1N=CN=C1C`, which AC50 is on record?
The AC50 was 10 µM (inconclusive).
